Measurements published in the supplement of paper PMC10307832.

Tests used:
Assay in all cases: relative viability (nuclei count vs DMSO), 5 days (fraction); higher = more cells survive
[1] = system: NCI-H522
Method in brief: (§1)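 Five library-drug doses in √10 steps were combined with a fixed anchor-drug dose, or a single drug was given alone, by pin tool to lung cancer cell lines in 1536-well plates the day after seeding. Nuclei were stained and counted after 5 days. Relative viability is the nuclei count in treated wells over that in vehicle wells, taken as the median of duplicate plates.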

[2] = system: RERF-LC-KJ
Method in brief: as §1

[3] = system: LCLC-97TM1
Method in brief: as §1

[4] = system: UMC-11
Method in brief: as §1

[5] = system: LK-2
Method in brief: as §1

[6] = system: NCI-H1650
Method in brief: as §1

[7] = system: NCI-H2347
Method in brief: as §1

[8] = system: A-427
Method in brief: as §1

[9] = system: 201T
Method in brief: as §1

[10] = system: NCI-H520
Method in brief: as §1

[11] = system: HCC-78
Method in brief: as §1

[12] = system: NCI-H2405
Method in brief: as §1

**Q.** Which results are given for `Cc1csc(=NC2CCCCC2)n1/N=C/c1ccc(O)c(O)c1O` [MIM1] + O=C(CCCCCCC(=O)Nc1ccccc1)NO [Vorinostat] (partner 1 µM)?
**A.** relative viability ([1]; first compound 2 µM): 0.91; relative viability ([1]; first compound 6.325 µM): 0.891; relative viability ([1]; first compound 20 µM): 0.345; relative viability ([2]; first compound 0.2 µM): 0.616; relative viability ([2]; first compound 0.6325 µM): 0.558; relative viability ([2]; first compound 2 µM): 0.507; relative viability ([2]; first compound 6.325 µM): 0.317; relative viability ([2]; first compound 20 µM): 0.225; relative viability ([3]; first compound 0.2 µM): 0.594; relative viability ([3]; first compound 0.6325 µM): 0.23; relative viability ([3]; first compound 2 µM): 0.719; relative viability ([3]; first compound 6.325 µM): 0.236; relative viability ([3]; first compound 20 µM): 0.0643; relative viability ([4]; first compound 0.2 µM): 0.501; relative viability ([4]; first compound 0.6325 µM): 0.392; relative viability ([4]; first compound 2 µM): 0.438; relative viability ([4]; first compound 6.325 µM): 0.243; relative viability ([4]; first compound 20 µM): 0.147; relative viability ([5]; first compound 0.2 µM): 0.363; relative viability ([5]; first compound 0.6325 µM): 0.272; relative viability ([5]; first compound 2 µM): 0.304; relative viability ([5]; first compound 6.325 µM): 0.562; relative viability ([5]; first compound 20 µM): 0.203; relative viability ([6]; first compound 0.2 µM): 0.617; relative viability ([6]; first compound 0.6325 µM): 0.562; relative viability ([6]; first compound 2 µM): 0.451; relative viability ([6]; first compound 6.325 µM): 0.119; relative viability ([6]; first compound 20 µM): 0.179; relative viability ([7]; first compound 0.2 µM): 0.68; relative viability ([7]; first compound 0.6325 µM): 0.643; relative viability ([7]; first compound 2 µM): 0.652; relative viability ([7]; first compound 6.325 µM): 0.449; relative viability ([7]; first compound 20 µM): 0.315; relative viability ([8]; first compound 0.2 µM): 0.858; relative viability ([8]; first compound 0.6325 µM): 0.663; relative viability ([8]; first compound 2 µM): 0.849; relative viability ([8]; first compound 6.325 µM): 0.745; relative viability ([8]; first compound 20 µM): 0.312; relative viability ([9]; first compound 0.2 µM): 0.974; relative viability ([9]; first compound 0.6325 µM): 0.952; relative viability ([9]; first compound 2 µM): 0.935; relative viability ([9]; first compound 6.325 µM): 0.528; relative viability ([9]; first compound 20 µM): 0.3; relative viability ([10]; first compound 0.2 µM): 0.64; relative viability ([10]; first compound 0.6325 µM): 0.744; relative viability ([10]; first compound 2 µM): 0.833; relative viability ([10]; first compound 6.325 µM): 0.538; relative viability ([10]; first compound 20 µM): 0.308; relative viability ([11]; first compound 0.2 µM): 0.452; relative viability ([11]; first compound 2 µM): 0.38; relative viability ([11]; first compound 6.325 µM): 0.424; relative viability ([11]; first compound 20 µM): 0.438; relative viability ([12]; first compound 0.2 µM): 1.01; relative viability ([12]; first compound 0.6325 µM): 0.964; relative viability ([12]; first compound 2 µM): 1.11; relative viability ([12]; first compound 6.325 µM): 0.749; relative viability ([12]; first compound 20 µM): 0.416
